# Patent US12534474B2, “Dihydrofuropyridine derivatives as rho-kinase inhibitors” (CHIESI FARMACEUTICI S.P.A., priority 2020, dated 2026)
# Tests used:
# [1] = target: ROCK1 (Homo sapiens, UniProt Q13464); experiment: In vitro Rho kinase inhibitory activity assay, ADP-Glo, Method A (ATP 10 μM); assay type: biochemical; conditions: read-out: Method A ROCK 1 (Ki)
# Procedure: (§1) In Vitro Inhibitory Activity Assay Description (Method A)
# (§2) The effectiveness of compounds of the present invention to inhibit Rho kinase activity can be determined in a 10 μL assay containing 40 mM Tris pH7.5, 20 mM MgCl2 0.1 mg/mL BSA, 50 μM DTT and 2.5 μM peptide substrate (Myelin Basic Protein) using an ADP-Glo kit (Promega). Compounds were dissolved in DMSO such that the final concentration of DMSO was 1% in the assay. All reactions/incubations are performed at 25° C. Compound (2 μL) and either Rho kinase 1 or 2 (4 μL) were mixed and incubated for 30 min. Reactions were initiated by addition of ATP (4 μL) such that the final concentration of ATP in the assay was 10 μM. After a 1 hour incubation 10 μL of ADP-Glo Reagent was added and after a further 45 minute incubation 20 μL of Kinase Detection Buffer was added and the mixture incubated for a further 30 minutes. The luminescent signal was measured on a luminometer. […] Compounds were tested in dose-response format and the inhibition of kinase activity was calculated at each concentration of compound. To determine the IC50 (concentration of compound required to inhibit 50% of the enzyme activity) data were fit to a plot of % inhibition vs Log10 compound concentration using a sigmoidal fit with a variable slope and fixing the maximum to 100% and the minimum to 0%. To determine the Ki values the Cheng-Prusoff equation was utilized (Ki=IC50/(1+[S]/Km).
# [2] = target: ROCK2 (Homo sapiens, UniProt O75116); experiment: as above; assay type: biochemical; conditions: read-out: Method A ROCK 2 (Ki)
# Procedure: as §1, §2
# Chain of ROCK2 (O75116 whole entry): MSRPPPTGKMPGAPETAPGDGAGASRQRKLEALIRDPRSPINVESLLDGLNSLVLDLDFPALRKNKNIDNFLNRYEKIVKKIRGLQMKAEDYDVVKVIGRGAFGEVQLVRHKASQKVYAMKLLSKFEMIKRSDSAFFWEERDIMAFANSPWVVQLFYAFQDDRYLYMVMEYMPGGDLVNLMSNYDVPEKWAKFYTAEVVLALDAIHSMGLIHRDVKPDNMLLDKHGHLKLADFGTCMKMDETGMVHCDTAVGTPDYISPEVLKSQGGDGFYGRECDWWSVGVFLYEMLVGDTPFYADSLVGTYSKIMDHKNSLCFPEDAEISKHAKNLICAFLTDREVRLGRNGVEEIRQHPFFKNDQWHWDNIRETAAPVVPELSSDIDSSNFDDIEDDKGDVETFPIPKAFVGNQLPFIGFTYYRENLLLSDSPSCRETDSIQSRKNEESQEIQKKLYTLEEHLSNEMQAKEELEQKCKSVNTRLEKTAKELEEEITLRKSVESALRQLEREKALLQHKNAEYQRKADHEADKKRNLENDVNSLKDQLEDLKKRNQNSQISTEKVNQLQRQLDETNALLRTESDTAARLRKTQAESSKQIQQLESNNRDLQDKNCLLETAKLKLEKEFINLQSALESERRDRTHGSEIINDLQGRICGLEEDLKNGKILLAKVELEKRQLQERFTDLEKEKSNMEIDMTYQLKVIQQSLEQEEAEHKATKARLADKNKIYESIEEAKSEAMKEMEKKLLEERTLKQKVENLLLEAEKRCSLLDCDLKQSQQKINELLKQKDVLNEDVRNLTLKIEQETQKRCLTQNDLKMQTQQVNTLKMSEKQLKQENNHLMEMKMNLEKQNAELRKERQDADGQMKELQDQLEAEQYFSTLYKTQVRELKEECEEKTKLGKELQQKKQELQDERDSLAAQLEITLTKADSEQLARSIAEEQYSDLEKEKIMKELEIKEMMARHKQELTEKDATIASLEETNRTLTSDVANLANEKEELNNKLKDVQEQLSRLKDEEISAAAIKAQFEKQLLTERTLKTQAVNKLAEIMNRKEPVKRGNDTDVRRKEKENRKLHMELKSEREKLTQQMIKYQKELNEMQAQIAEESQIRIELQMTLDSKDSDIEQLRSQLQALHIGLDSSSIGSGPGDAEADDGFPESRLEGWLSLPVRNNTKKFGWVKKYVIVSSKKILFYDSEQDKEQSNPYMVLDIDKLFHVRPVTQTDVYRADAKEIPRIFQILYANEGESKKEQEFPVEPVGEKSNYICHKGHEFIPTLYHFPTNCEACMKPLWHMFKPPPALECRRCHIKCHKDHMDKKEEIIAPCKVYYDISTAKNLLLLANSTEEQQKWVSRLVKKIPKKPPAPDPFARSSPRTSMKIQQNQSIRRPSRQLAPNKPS
# Chain of ROCK1 (Q13464 whole entry): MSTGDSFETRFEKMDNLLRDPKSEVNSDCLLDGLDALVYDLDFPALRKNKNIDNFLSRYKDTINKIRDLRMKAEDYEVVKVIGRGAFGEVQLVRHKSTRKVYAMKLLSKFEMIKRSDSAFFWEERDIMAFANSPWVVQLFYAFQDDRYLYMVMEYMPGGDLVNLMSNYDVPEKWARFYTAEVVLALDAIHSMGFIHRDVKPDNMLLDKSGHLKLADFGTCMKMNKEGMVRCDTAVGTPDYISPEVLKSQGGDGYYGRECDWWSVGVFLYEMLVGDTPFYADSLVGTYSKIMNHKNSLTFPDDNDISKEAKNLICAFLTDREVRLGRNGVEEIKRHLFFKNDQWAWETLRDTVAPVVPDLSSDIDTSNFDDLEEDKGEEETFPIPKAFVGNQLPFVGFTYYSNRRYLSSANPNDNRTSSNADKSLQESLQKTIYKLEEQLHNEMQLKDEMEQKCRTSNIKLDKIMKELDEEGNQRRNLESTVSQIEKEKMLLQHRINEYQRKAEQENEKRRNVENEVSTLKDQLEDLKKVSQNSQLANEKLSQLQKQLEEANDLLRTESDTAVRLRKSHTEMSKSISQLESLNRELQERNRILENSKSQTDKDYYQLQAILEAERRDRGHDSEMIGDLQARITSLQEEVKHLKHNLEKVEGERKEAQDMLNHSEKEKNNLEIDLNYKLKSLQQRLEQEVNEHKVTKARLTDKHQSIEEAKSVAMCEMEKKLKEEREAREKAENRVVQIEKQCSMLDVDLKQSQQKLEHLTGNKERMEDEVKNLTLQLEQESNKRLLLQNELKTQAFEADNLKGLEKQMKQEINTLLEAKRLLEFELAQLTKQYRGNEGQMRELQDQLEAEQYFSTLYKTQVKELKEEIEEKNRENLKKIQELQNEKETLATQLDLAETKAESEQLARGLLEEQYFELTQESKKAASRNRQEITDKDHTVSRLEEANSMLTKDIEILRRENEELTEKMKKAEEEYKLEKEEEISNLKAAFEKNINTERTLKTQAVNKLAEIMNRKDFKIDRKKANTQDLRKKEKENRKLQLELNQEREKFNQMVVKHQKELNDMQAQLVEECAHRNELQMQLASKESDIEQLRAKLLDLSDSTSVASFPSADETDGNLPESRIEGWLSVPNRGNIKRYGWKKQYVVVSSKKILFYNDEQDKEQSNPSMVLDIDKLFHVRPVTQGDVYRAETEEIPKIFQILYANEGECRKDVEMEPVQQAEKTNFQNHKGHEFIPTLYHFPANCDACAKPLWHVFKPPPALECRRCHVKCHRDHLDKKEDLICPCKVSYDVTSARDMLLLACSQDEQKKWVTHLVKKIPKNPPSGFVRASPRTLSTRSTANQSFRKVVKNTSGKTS
Structure (SMILES),Ki [1],Ki [2]
"O=C(Nc1cccc(CNc2ncc(-c3ccncc3)c3c2CCO3)c1)c1ccc2c(c1)CCNC2 [Example 40, N-(3-(((7-(pyridin-4-yl)-2,3-dihydrofuro[3,2-c]pyridin-4-yl)amino)methyl)phenyl)-1,2,3,4-tetrahydroisoquinoline-6-carboxamide]",≤ 3 nM,≤ 3 nM
"Cc1cc(-c2cnc(NCc3cccc(C(=O)Nc4nc5c(s4)CN(C)CC5)c3)c3c2OCC3)ccn1 [Example 47, N-(5-Methyl-4,5,6,7-tetrahydrothiazolo[5,4-c]pyridin-2-yl)-3-(((7-(2-methylpyridin-4-yl)-2,3-dihydrofuro[3,2-c]pyridin-4-yl)amino)methyl)benzamide]",3 to 30 nM,3 to 30 nM
"Cc1cnccc1-c1cnc(NCc2cccc(C(=O)Nc3nc4c(s3)CN(C)CC4)c2)c2c1OCC2 [Example 48, N-(5-methyl-4,5,6,7-tetrahydrothiazolo[5,4-c]pyridin-2-yl)-3-(((7-(3-methylpyridin-4-yl)-2,3-dihydrofuro[3,2-c]pyridin-4-yl)amino)methyl)benzamide]",≤ 3 nM,≤ 3 nM
"CN(C)Cc1nc(C(=O)Nc2cccc(CNc3ncc(-c4ccncc4)c4c3CCO4)c2)cs1 [Example 53, 2-((dimethylamino)methyl)-N-(3-(((7-(pyridin-4-yl)-2,3-dihydrofuro[3,2-c]pyridin-4-yl)amino)methyl)phenyl)thiazole-4-carboxamide]",3 to 30 nM,3 to 30 nM
"CC(=O)Nc1cccc(CNc2ncc(-c3ccncc3)c3c2CC(C)O3)c1 (stereo not drawn) [Example 55, N-(3-(((2-methyl-7-(pyridin-4-yl)-2,3-dihydrofuro[3,2-c]pyridin-4-yl)amino)methyl)phenyl)acetamide]",3 to 30 nM,3 to 30 nM

# Other lines, results leading:
Ki [1],Ki [2],Structure (SMILES)
≤ 3 nM,≤ 3 nM,"CN1CCc2nc(NC(=O)c3cccc(CNc4ncc(-c5ccnc(N)c5)c5c4CCO5)c3)sc2C1 [Example 49, 3-(((7-(2-aminopyridin-4-yl)-2,3-dihydrofuro[3,2-c]pyridin-4-yl)amino)methyl)-N-(5-methyl-4,5,6,7-tetrahydrothiazolo[5,4-c]pyridin-2-yl)benzamide]"
≤ 3 nM,≤ 3 nM,"CN1CCc2nc(NC(=O)c3cccc(CNc4ncc(-c5ccnc(F)c5)c5c4CCO5)c3)sc2C1 [Example 50, 3-(((7-(2-fluoropyridin-4-yl)-2,3-dihydrofuro[3,2-c]pyridin-4-yl)amino)methyl)-N-(5-methyl-4,5,6,7-tetrahydrothiazolo[5,4-c]pyridin-2-yl)benzamide]"
3 to 30 nM,≤ 3 nM,"CN1CCc2nc(NC(=O)c3ccnc(CNc4ncc(-c5ccncc5)c5c4CCO5)c3)sc2C1 [Example 51, N-(5-methyl-4,5,6,7-tetrahydrothiazolo[5,4-c]pyridin-2-yl)-2-(((7-(pyridin-4-yl)-2,3-dihydrofuro[3,2-c]pyridin-4-yl)amino)methyl)isonicotinamide]"
3 to 30 nM,≤ 3 nM,"CN1CCc2nc(NC(=O)c3cccc(CNc4ncc(-c5ccncc5)c5c4CCO5)n3)sc2C1 [Example 52, N-(5-methyl-4,5,6,7-tetrahydrothiazolo[5,4-c]pyridin-2-yl)-6-(((7-(pyridin-4-yl)-2,3-dihydrofuro[3,2-c]pyridin-4-yl)amino)methyl)picolinamide]"
